Measurements as given in the supplement of paper PMC10307832.

Columns and labels:
Assay in all cases: relative viability (nuclei count vs DMSO), 5 days (fraction); higher = more cells survive
[1] = compound: C=CCn1c(=O)c2cnc(Nc3ccc(N4CCN(C)CC4)cc3)nc2n1-c1cccc(C(C)(C)O)n1 [Adavosertib] + CCNC(=O)c1noc(-c2cc(C(C)C)c(O)cc2O)c1-c1ccc(CN2CCOCC2)cc1 [Luminespib] (partner 0.01 µM)
Summary of the method: (§1)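 Cells from lung cancer lines were seeded into 1536-well plates and, one day later, dosed by pin tool. Treatments were either a single drug or a fixed dose of an anchor drug with five library-drug doses (not always all listed) in √10 steps. After 5 days, nuclei were stained in a one-step fixation (final 0.05% Triton X-100, 1% formaldehyde, 1 ug/ml Hoechst) and counted on 4× images, and relative viability is the treated-to-vehicle nuclei ratio, as the median of duplicate plates.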

[2] = compound: COc1nc(N)nc2c1ncn2[C@@H]1O[C@H](CO)[C@@H](O)[C@@H]1O [Nelarabine] + CC(=O)c1c(C)c2cnc(Nc3ccc(N4CCNCC4)cn3)nc2n(C2CCCC2)c1=O [Palbociclib] (partner 0.5 µM)
Summary of the method: as §1

[3] = compound: C=CCn1c(=O)c2cnc(Nc3ccc(N4CCN(C)CC4)cc3)nc2n1-c1cccc(C(C)(C)O)n1 [Adavosertib] + NC(=O)Nc1cc(-c2cccc(F)c2)sc1C(=O)N[C@H]1CCCNC1 [AZD7762] (partner 0.2 µM)
Summary of the method: as §1

[4] = compound: C=CCn1c(=O)c2cnc(Nc3ccc(N4CCN(C)CC4)cc3)nc2n1-c1cccc(C(C)(C)O)n1 [Adavosertib] + CC(=O)c1c(C)c2cnc(Nc3ccc(N4CCNCC4)cn3)nc2n(C2CCCC2)c1=O [Palbociclib] (partner 0.5 µM)
Summary of the method: as §1

| Cell Line | relative viability ([1]; first compound 0.01 µM) | relative viability ([1]; first compound 0.03162 µM) | relative viability ([1]; first compound 0.1 µM) | relative viability ([1]; first compound 0.3162 µM) | relative viability ([2]; first compound 0.01 µM) | relative viability ([2]; first compound 0.03162 µM) | relative viability ([2]; first compound 0.1 µM) | relative viability ([2]; first compound 0.3162 µM) | relative viability ([2]; first compound 1 µM) | relative viability ([3]; first compound 0.01 µM) | relative viability ([3]; first compound 0.03162 µM) | relative viability ([3]; first compound 0.1 µM) | relative viability ([3]; first compound 0.3162 µM) | relative viability ([4]; first compound 0.01 µM) | relative viability ([4]; first compound 0.03162 µM) | relative viability ([4]; first compound 0.1 µM) | relative viability ([4]; first compound 0.3162 µM) |
| --- | --- | --- | --- | --- | --- | --- | --- | --- | --- | --- | --- | --- | --- | --- | --- | --- | --- |
| NCI-H2126 | 0.831 | 0.832 | 0.897 | 0.93 | 0.347 | 0.352 | 0.326 | 0.353 | 0.403 | 0.962 | 1.03 | 0.949 | 0.788 | 0.352 | 0.34 | 0.352 | 0.35 |
| HOP-62 | 0.997 | 0.906 | 0.909 | 0.945 | 0.567 | 0.49 | 0.496 | 0.419 | 0.485 | 0.697 | 0.382 | 0.364 | 0.116 | 0.496 | 0.513 | 0.59 | 0.486 |
| NCI-H647 | 0.128 | 0.179 | 0.151 | 0.136 | 0.423 | 0.396 | 0.501 | 0.457 | 0.458 | 0.351 | 0.358 | 0.167 | 0.0858 | 0.408 | 0.461 | 0.261 | 0.316 |
| NCI-H2170 | 0.592 | 0.747 | 0.626 | 0.479 | 0.438 | 0.337 | 0.385 | 0.395 | 0.405 | 0.919 | 0.838 | 0.725 | 0.266 | 0.403 | 0.419 | 0.399 | 0.36 |
| NCI-H1793 | 0.148 | 0.21 | 0.179 | 0.156 | 0.353 |  | 0.316 | 0.398 | 0.318 | 0.407 | 0.2 | 0.14 | 0.179 | 0.293 | 0.293 | 0.298 | 0.275 |
| NCI-H727 | 0.299 | 0.363 | 0.301 | 0.24 | 0.659 | 0.602 | 0.663 | 0.624 | 0.608 | 0.636 | 0.406 | 0.445 | 0.394 | 0.584 | 0.699 | 0.637 | 0.658 |
| NCI-H441 | 0.291 | 0.346 | 0.418 | 0.276 | 0.194 | 0.188 | 0.202 | 0.192 | 0.192 | 1.12 | 0.989 | 0.658 | 0.355 | 0.234 | 0.25 | 0.241 | 0.197 |
| LCLC-97TM1 | 0.78 | 0.54 | 0.982 | 0.804 |  |  | 0.299 | 0.229 | 0.265 | 0.289 | 0.264 | 0.138 | 0.0845 | 0.25 | 0.213 | 0.237 | 0.294 |
| NCI-H2405 | 0.556 | 0.805 | 0.773 | 0.69 | 0.495 | 0.48 | 0.516 | 0.529 | 0.51 |  | 0.663 | 0.331 | 0.276 |  | 0.492 | 0.555 | 0.58 |
| NCI-H460 | 0.0322 | 0.0312 | 0.0317 | 0.0275 | 0.212 | 0.213 | 0.144 | 0.162 | 0.181 | 0.376 | 0.507 | 0.169 | 0.0591 | 0.182 | 0.19 | 0.181 | 0.125 |
| NCI-H650 | 0.76 | 0.842 | 0.841 | 0.673 | 0.338 | 0.283 | 0.297 | 0.301 | 0.363 | 0.736 | 0.809 | 0.411 | 0.221 | 0.344 | 0.372 | 0.336 | 0.371 |
| LK-2 | 0.163 | 0.216 | 0.182 | 0.183 | 1.04 |  | 0.772 | 0.835 | 0.684 | 0.29 | 0.374 | 0.236 | 0.168 | 0.7 | 0.937 | 0.879 | 0.761 |
| LU99A | 0.314 | 0.188 | 0.221 | 0.198 | 0.48 | 0.34 | 0.429 | 0.43 | 0.399 | 0.295 | 0.196 | 0.184 | 0.122 | 0.404 | 0.373 | 0.393 | 0.409 |
| EPLC-272H | 0.225 | 0.549 | 0.196 | 0.182 | 0.337 | 0.263 | 0.236 | 0.337 | 0.28 | 0.161 | 0.151 | 0.127 | 0.135 | 0.331 | 0.32 | 0.35 | 0.317 |
| NCI-H2087 | 0.208 | 0.187 | 0.194 | 0.195 | 0.251 | 0.189 | 0.268 | 0.198 | 0.192 | 1.37 | 1.21 | 1.3 | 1.03 | 0.218 | 0.217 | 0.263 | 0.243 |
| HCC-827 | 0.598 | 0.774 | 0.42 | 0.667 | 0.537 | 0.504 | 0.454 | 0.378 | 0.397 | 0.196 | 0.166 | 0.179 | 0.15 | 0.467 | 0.452 | 0.533 | 0.532 |
| ABC-1 | 0.799 | 0.357 | 0.584 | 0.364 | 0.624 | 0.553 | 0.762 | 0.625 | 0.692 | 0.87 | 0.706 | 0.623 | 0.802 | 0.736 | 0.745 | 0.777 | 0.896 |
| NCI-H1734 | 0.234 | 0.241 | 0.184 | 0.191 | 0.387 | 0.305 | 0.334 | 0.368 | 0.326 | 0.379 | 0.315 | 0.202 | 0.168 | 0.332 | 0.326 | 0.353 | 0.375 |
| NCI-H1993 | 0.912 | 0.904 | 0.836 | 1.06 | 0.721 | 0.516 | 0.692 | 0.547 | 0.647 | 0.905 | 0.828 | 0.697 | 0.807 | 0.656 | 0.701 | 0.725 | 0.934 |
